Measurements reported in publication PMC4655872, “A quantitative assay to monitor HSV-1 ICP0 ubiquitin ligase activity in vitro” (Methods (San Diego, Calif.), 2015).

Tested on: T1, GST-ICP0.241
T1 construct: gene RL2; purified from bacterial extracts; assayed with His-tagged human E1 (UBA1) and UBE2D1
Experiment: near-IR western blot of ICP0 auto-ubiquitination with methylated-ubiquitin, reconstituted E1/E2/E3
Assay type: biochemical, Human alphaherpesvirus 1
Settings: non-specific divalent cation chelator, not a specific ligand; E1 and UBE2D1 present, 1 mM MgCl2, 5 mM ATP, pH 7.5, 37 °C, 5 min preincubation, 60 min reaction

**Q.** How did the IC50 turn out when `O=C(O)CN(CCN(CC(=O)O)CC(=O)O)CC(=O)O` [EDTA] was run?
**A.** The IC50 was 958 µM.
